Reference: patent US20220008391A1, “NOVEL COMPOUNDS FOR CONTROLLING ARTHROPODS” (Bayer Animal Health GmbH, priority 2018, published 2022)
In brackets after ≈: the same amount, converted by molar mass.

Key:
[1] = Degradation of prodrugs and release of parent compound in dog plasma; type: in vitro ADME
Protocol: Measurement of Release of Parent Compound in Dog Plasma 1 mg of the test compound was dissolved in 0.5 mL acetonitrile/dimethylsulfoxide 9:1. For complete dissolution the HPLC vial was shaken and treated with ultrasound. 20 μl of this solution were added to 1 mL of dog plasma (Beagle) under vortexing at a temperature of 37° C. Aliquots (100 μL each) were taken at 0.17, 0.5, 1, 1.5, 2 and 4 hours. Each aliquot was transferred to a vial containing 300 μL of acetonitrile/citric acid buffer pH 3 80:20. These solutions were centrifuged at 5000 rpm for 10 minutes. The supernatant was analysed by HPLC (Method 8) to determine the amount of the test compound. In addition, the reaction mixture was analysed by method 9 (HPLC-MS) at the final timepoint. Both decrease of the prodrug concentration and increase of parent compound concentration were monitored. All data is given as percent area of the prodrug at t0.

Ctenocephalides felis = test: Antiparasitic activity after administration to rats, fleas; type: in vivo; settings: for flea efficacy on rats compared with the parent drug also injected subcutaneously: SC; for Efficacy SD42: sc, CF A, study day 42, 13.33-13.98 mg/kg prodrugs
Protocol: (§1) Measurement of the Antiparasitic Activity after Administration of a Prodrug to Rats Compounds were dissolved in the appropriate volume of glycerol formal (p.a.) just before application to the animals (dose volume was adjusted to 0.03 mL/kg bodyweight). 5 rats per group were either injected intraperitoneally or subcutaneously. Rats were infested with 30 Dermacentor variabilis nymphs on study days −2, 7, 14, 21, 28, 35 and 30 adult Ctenocephalides fleas on study days −1, 8, 15, 22, 29, 36. […] Percent efficacy was calculated as arithmetic mean parasite numbers as life attached tick numbers and live flea numbers of the respective study group in comparison to parasite counts on a placebo-treated control group. Infestation of groups with less than 75% efficacy on two consecutive counting occasions will terminated for the respective parasite.

Dermacentor variabilis [2] = test: Antiparasitic activity after administration to rats, tick nymphs; type: in vivo; settings: for tick efficacy on rats compared with the parent drug also injected subcutaneously: SC; for Efficacy SD42: sc, DV N, study day 42, 13.33-13.98 mg/kg prodrugs
Protocol: as §1

[3] = Measurement of solubility in buffer at pH 6.5; type: physicochemical; settings: aqueous buffer, kinetic from dmso stock; PBS buffer pH 6.5, shaken 24h at rt, LC-MSMS; read-out: Solubility of example compounds at pH 6.5
Protocol: Measurement of Solubility in Buffer at pH 6.5 2-4 mg of the test compound are dissolved in DMSO to reach a concentration of 50 g/L (solution A). To 10 μl of this solution 960 μl PBS buffer pH 6.5 are added (final concentration: 515 μg/1); the mixture is shaken for 24h at rt in a 96 well plate. An aliquot is centrifuged at 42000 rpm für 30 min. The supernatant is diluted with acetonitrile/water (8:2) 1:10 and 1:1000 resp. This diluted samples are analyzed by LC-MSMS. Calibration: 10 μl of solution A are diluted with 823 μl DMSO (final concentration: 600 μg/ml), which is further diluted with acetonitrile/water 8:2 by a factor of 100 (provides solution B). The calibration curve is obtained from solution B by further diluting with acetonitrile/water 8:2 with target concentrations of 1.2-12-60-600 ng/ml and injecting these four solutions for MS measurement. PBS-Puffer: 6.18 g sodium chloride and 3.96 g sodium dihydrogen phosphate are dissolved in 1 L aqua dist., the pH is adjusted to 6.5 with 1N sodium hydroxide. The following conditions were used for quantification: Autosampler without auto inject ahead setting, column: Waters OASIS HLB, 2,1×20 mm, 25μ, column temperature: 30° C., flow rate: 2.5 mL/min, injected volume: 2 μl, Splitter (before MS) 1:20.

Dermacentor variabilis [4] = test: Antiparasitic activity after administration to dogs, D. variabilis ticks; type: in vivo; settings: sc
Protocol: Measurement of the Antiparasitic Activity after Administration of a Prodrug to Dogs
Compounds were dissolved in the appropriate volume of glycerol formal (p.a.) just before application to the animals (dose volume was adjusted to 0.1 ml/kg bodyweight). Dogs were injected intravenously respective subcutaneously (see table 8 for details).
Dogs were infested with ectoparasites according to table on study 1 day prior to counting for fleas, 2 days prior to counting for RS, IR, DV ticks and 3 days prior to counting for AA ticks. For this purpose, dogs were placed in an individually labeled box with grid windows. The ticks were released onto the back of the dogs and were allowed to disperse and move into the hair without disturbance. The dog remained in the box for approximately 120 minutes with the lid closed and the light switched off in the room. For flea infestations, flea containers were opened in the animal's cage and fleas were applied on the dog's back between the shoulders.
Tick counts including removal of I. ricinus, R. sanguineus and D. variabilis were conducted 48(±4) hours after the infestation. Tick counts including removal of A. americanum were conducted 72(±4) hours after the infestation. Flea counts were conducted 24(±4) hours after the infestation.
On each parasite assessment day percent efficacy was calculated as arithmetic mean parasite numbers as life attached and live free tick numbers and live flea numbers of the respective study group in comparison to parasite counts on a placebo non-treated control group.

In the case of `N#CC1(N(COC(=O)OCCOC(=O)/C=C/C(=O)O)C(=O)c2cc(-c3cnn(-c4c(Cl)cc(C(F)(C(F)(F)F)C(F)(F)F)cc4OC(F)(F)F)c3)ccc2Cl)CC1` [Example 1, (11E)-1-(2-Chloro-5-{1-[2-chloro-4-(1,1,1,2,3,3,3-heptafluoropropan-2-yl)-6-(trifluoromethoxy)phenyl]-1H-pyrazol-4-yl}phenyl)-2-(1-cyanocyclopropyl)-1,5,10-trioxo-4,6,9-trioxa-2-azatridec-11-en-13-oic Acid], the “% Parent Drug 4 h” value ([1]; Beagle, dog, 4 h, 39.2 µg/mL) is reported as 32%, the recovery at 0.17 h, 39 µg/mL ([1]; dog plasma (Beagle), 37° C., 0.17 h, percent area of prodrug at t0) is reported as 100% and the recovery at 0.5 h, 39 µg/mL ([1]; dog plasma (Beagle), 37° C., 0.5 h) is reported as 100%. For the same compound, the recovery at 1 h, 39 µg/mL ([1]; dog plasma (Beagle), 37° C., 1 h) was 100%, the recovery at 1.5 h, 39 µg/mL ([1]; dog plasma (Beagle), 37° C., 1.5 h) was 88% and the recovery at 2 h, 39 µg/mL ([1]; dog plasma (Beagle), 37° C., 2 h) was 82%. For the same compound, the recovery at 4 h, 39 µg/mL ([1]; dog plasma (Beagle), 37° C., 4 h) was 54%, the “flea efficacy on rats compared with the parent drug also injected subcutaneously” value (Ctenocephalides felis) was “superior” and the “Efficacy SD42” value (Ctenocephalides felis) was 79%. The “tick efficacy on rats compared with the parent drug also injected subcutaneously” value (Dermacentor variabilis [2]) was “superior”, the “Efficacy SD42” value (Dermacentor variabilis [2]) was 81% and the solubility at 24 h [3] was 5 µg/mL (≈ 5.78 µM). The “duration of efficacy against D. variabilis as least sensitive species” value (Dermacentor variabilis [4]) was “five”, the “% Efficacy in study month 4” value (Dermacentor variabilis [4]; 13.33 mg/kg (=10 parent), DV, study 4, month 4) was 96% and the “% Efficacy in study month 5” value (Dermacentor variabilis [4]; 13.33 mg/kg (=10 parent), DV, study 4, month 5) was 100%. For the same compound, the “% Efficacy in study month 6” value (Dermacentor variabilis [4]; 13.33 mg/kg (=10 parent), DV, study 4, month 6) was 77%.

For `N#CC1(N(COC(=O)OCCCOC(=O)/C=C/C(=O)O)C(=O)c2cc(-c3cnn(-c4c(Cl)cc(C(F)(C(F)(F)F)C(F)(F)F)cc4OC(F)(F)F)c3)ccc2Cl)CC1` [Example 2, (12E)-1-(2-Chloro-5-{1-[2-chloro-4-(1,1,1,2,3,3,3-heptafluoropropan-2-yl)-6-(trifluoromethoxy)phenyl]-1H-pyrazol-4-yl}phenyl)-2-(1-cyanocyclopropyl)-1,5,11-trioxo-4,6,10-trioxa-2-azatetradec-12-en-14-oic Acid], the “Efficacy SD42” value (Ctenocephalides felis) was 69%, the “Efficacy SD42” value (Dermacentor variabilis [2]) was 82% and the solubility at 24 h [3] was 4 µg/mL (≈ 4.55 µM).

For `CC(C)(COC(=O)/C=C/C(=O)O)COC(=O)OCN(C(=O)c1cc(-c2cnn(-c3c(Cl)cc(C(F)(C(F)(F)F)C(F)(F)F)cc3OC(F)(F)F)c2)ccc1Cl)C1(C#N)CC1` [Example 4, (12E)-1-(2-chloro-5-{1-[2-chloro-4-(1,1,1,2,3,3,3-heptafluoropropan-2-yl)-6-(trifluoromethoxy)phenyl]-1H-pyrazol-4-yl}phenyl)-2-(1-cyanocyclopropyl)-8,8-dimethyl-1,5,11-trioxo-4,6,10-trioxa-2-azatetradec-12-en-14-oic Acid], the “flea efficacy on rats compared with the parent drug also injected subcutaneously” value (Ctenocephalides felis) was “superior”, the “tick efficacy on rats compared with the parent drug also injected subcutaneously” value (Dermacentor variabilis [2]) was “superior” and the solubility at 24 h [3] was 2 µg/mL (≈ 2.2 µM).

In the case of `N#CC1(N(COC(=O)OCCCC(=O)O)C(=O)c2cc(-c3cnn(-c4c(Cl)cc(C(F)(C(F)(F)F)C(F)(F)F)cc4OC(F)(F)F)c3)ccc2Cl)CC1` [Example 37, 4-[({[(2-Chloro-5-{1-[2-chloro-4-(1,1,1,2,3,3,3-heptafluoropropan-2-yl)-6-(trifluoromethoxy)phenyl]-1H-pyrazol-4-yl}benzoyl)(1-cyanocyclopropyl)amino]methoxy}carbonyl)oxy]butanoic Acid], the solubility at 24 h [3] is reported as 7 µg/mL (≈ 8.65 µM).

In the case of `Cn1nc(C(F)(F)C(F)(F)F)c(C(F)(F)F)c1-n1cc(-c2ccc(Cl)c(C(=O)N(COC(=O)O[C@@H]3CCC[C@H]3OC(=O)CCC(=O)O)C3(C#N)CC3)c2)cn1` [Example 38, 4-({(1R,2R)-2-[({[{2-Chloro-5-[2′-methyl-5′-(pentafluoroethyl)-4′-(trifluoromethyl)-2′H-[1,3′-bipyrazol]-4-yl]benzoyl}(1-cyanocyclopropyl)amino]methoxy}carbonyl)oxy]cyclopentyl}oxy)-4-oxobutanoic Acid], the solubility at 24 h [3] is reported as 37 µg/mL (≈ 45.6 µM).

With `Cn1nc(C(F)(F)C(F)(F)F)c(C(F)(F)F)c1-n1cc(-c2ccc(Cl)c(C(=O)N(COC(=O)OCC(C)(C)COC(=O)/C=C/C(=O)O)C3(C#N)CC3)c2)cn1` [Example 39, (12E)-1-{2-chloro-5-[2′-methyl-5′-(pentafluoroethyl)-4′-(trifluoromethyl)-2′H-[1,3′-bipyrazol]-4-yl]phenyl}-2-(1-cyanocyclopropyl)-8,8-dimethyl-1,5,11-trioxo-4,6,10-trioxa-2-azatetradec-12-en-14-oic Acid] the solubility at 24 h [3] was 43 µg/mL (≈ 53 µM).

With `Cn1nc(C(F)(F)C(F)(F)F)c(C(F)(F)F)c1-n1cc(-c2ccc(Cl)c(C(=O)N(COC(=O)OCCOC(=O)CC(C)(C)C(=O)O)C3(C#N)CC3)c2)cn1` [Example 40, 1-{2-Chloro-5-[2′-methyl-5′-(pentafluoroethyl)-4′-(trifluoromethyl)-2′H-[1,3′-bipyrazol]-4-yl]phenyl}-2-(1-cyanocyclopropyl)-12,12-dimethyl-1,5,10-trioxo-4,6,9-trioxa-2-azatridecan-13-oic Acid] the solubility at 24 h [3] was 43 µg/mL (≈ 53.8 µM).

Work on `CC(C)(COC(=O)OCN(C(=O)c1cc(-c2cnn(-c3c(Cl)cc(C(F)(C(F)(F)F)C(F)(F)F)cc3OC(F)(F)F)c2)ccc1Cl)C1(C#N)CC1)C(=O)O` [Example 41, 3-[({[(2-Chloro-5-{1-[2-chloro-4-(1,1,1,2,3,3,3-heptafluoropropan-2-yl)-6-(trifluoromethoxy)phenyl]-1H-pyrazol-4-yl}benzoyl)(1-cyanocyclopropyl)amino]methoxy}carbonyl)oxy]-2,2-dimethylpropanoic Acid] yielded a solubility at 24 h [3] of 4 µg/mL (≈ 4.86 µM).

With `Cn1nc(C(F)(F)C(F)(F)F)c(C(F)(F)F)c1-n1cc(-c2ccc(Cl)c(C(=O)N(COC(=O)O[C@H]3CCC[C@@H]3OC(=O)/C=C/C(=O)O)C3(C#N)CC3)c2)cn1` [Example 42, (2E)-4-({(1S,2S)-2-[({[{2-Chloro-5-[2′-methyl-5′-(pentafluoroethyl)-4′-(trifluoromethyl)-2′H-[1,3′-bipyrazol]-4-yl]benzoyl}(1-cyanocyclopropyl)amino]methoxy}carbonyl)oxy]cyclopentyl}oxy)-4-oxobut-2-enoic Acid] the solubility at 24 h [3] was 38 µg/mL (≈ 47 µM).
